According to publication PMC6149709, “(−)-Epigallocatechin-3-Gallate Inhibits the Chaperone Activity of Plasmodium falciparum Hsp70 Chaperones and Abrogates Their Association with Functional Partners” (Molecules : A Journal of Synthetic Chemistry and Natural …, 2017):
Read-outs that look alike come from different tables or passages of the source.

Key:
PfHsp70-1 [1] = target: T1, PfHsp70-1 (Plasmodium falciparum, UniProt Q8IB24); assay: Suppression of heat-induced aggregation of MDH (chaperone function); type: biochemical; details: 48 °C; for effect on chaperone activity (MDH aggregation): 5 mM ADP/ATP
Experimental: (§1) The chaperone function of parasite Hsp70s was investigated by monitoring heat-induced aggregation of a model protein, malate dehydrogenase (MDH) from porcine heart (Sigma-Aldrich), as previously described, with minor modifications. Before conducting the assays, we first established that both purified preparations of PfHsp70-1 and PfHsp70-z were heat-stable at 48 °C. After this, we then investigated the effects of the chaperones (PfHsp70-1/PfHsp70-z) on the heat-induced aggregation of MDH. To determine the effects of EGCG on the chaperone function of the two proteins, the assay was repeated in the presence of 2.5 µM of EGCG. EGCG was used at this concentration (2.5 µM) because this was the lowest concentration at which it inhibited the function of the chaperones. […] For statistical analysis, a one-way ANOVA test was conducted using GraphPad Prism 6 (San Diego, CA, USA).

PfHsp70-z [2] = target: T2, PfHsp70-z (Plasmodium falciparum, UniProt Q8IC01); assay: as above; type: biochemical; details: 48 °C; for effect on chaperone activity (MDH aggregation): 5 mM ADP/ATP
Experimental: as §1

PfHsp70-1 [3] = target: T1, PfHsp70-1; assay: SPR binding affinity to immobilised PfHsp70-1; details: EGCG vs ATP binding to PfHsp70-1
Experimental: (§2) The binding affinity of EGCG for the two P. falciparum Hsp70s was determined using a Bio-Rad ProteOn XPR36 system (Hercules, CA, USA), as previously described. Briefly, PfHsp70-1, PfHsp70-1NBD, and PfHsp70-z (as ligands) were separately immobilized onto an HTE chip at concentrations of 0.5 μg/mL and 1 μg/mL, respectively, in order to validate the data. […] In order to determine the association of EGCG with the respective ligand, the EGCG stock solution was prepared in deionised water. Aliquots of EGCG were prepared at final concentrations of 0, 125, 250, 500, 1000, and 2000 nM and injected at 100 μL/min into each horizontal channel. Association was allowed for 2 min and dissociation was monitored for 8 min. Data collected was double referenced using a buffer blank (buffer without EGCG) and a channel in which protein was excluded. Steady-state equilibrium constant data were processed and analysed using BioRad ProteOn Manager Version 3.1.0.6 (Hercules, CA, USA) and GE Healthcare Biosciences BIA evaluation Version 4.1.1 software (Uppsala, Sweden).

PfHsp70-z [4] = target: T2, PfHsp70-z; assay: SPR binding affinity to immobilised PfHsp70-z; details: EGCG vs ATP binding to PfHsp70-z
Experimental: as §2

PfHsp70-1 [5] = target: T1, PfHsp70-1; assay: Basal ATPase activity, colourimetric Pi release; type: biochemical
Experimental: (§3) The basal ATPase activities of the parasite Hsp70s was assessed by a colourimetric-based method, as previously described. Briefly, 0.4 µM of recombinant proteins (PfHsp70-1/PfHsp70-z) was incubated in buffer HKMD (10 mM HEPES-KOH pH 7.5, 100 mM KCl, 2 mM MgCl2, 0.5 mM DTT) at 37 °C. […] The released inorganic phosphate was detected by adding 1.25% ammonium molybdate and 9% ascorbic acid and monitored using a M3 SpectraMax (Molecular Devices, Sunnyvale, CA, USA) spectrophotometer at 660 nm. To determine the effect of EGCG on the ATPase activity of parasite Hsp70s, the assay was repeated in the presence of varying amounts (0–5 µM) of EGCG.

PfHsp70-z [6] = target: T2, PfHsp70-z; assay: Basal ATPase activity, colourimetric Pi release; type: biochemical
Experimental: as §3

PfHsp70-1 [7] = target: T1, PfHsp70-1; assay: Tryptophan/tyrosine fluorescence, tertiary conformation; details: EGCG 0–5 μM
Experimental: (§4) We further exposed the two proteins to varying amounts (0–5 µM) of EGCG and monitored he perturbation of the tertiary structural conformations of the proteins using both tyrosine and tryptophan fluorescence, as previously described. The respective recombinant protein (PfHsp70-1 of PfHsp70-z) at a final concentration of 0.45 μg/mL was incubated in assay buffer A (25 mM HEPES-KOH pH 7.5, 100 mM KCl, 10 mM MgOAc) at 20 °C either in the absence or presence of variable EGCG levels (0–5 μM). […] Tryptophan fluorescence spectra were recorded between 300 nm and 400 nm after initial excitation at 295 nm using a JASCO FP-6300 spectrofluorometer (Dunmow, UK). The combined fluorescence of tyrosine and tryptophan was monitored after initial excitation at 285 nm. Subsequently, fluorescence was monitored at wavelengths between 300 nm and 400 nm using a JASCO FP-6300 spectrofluorometer. The resultant spectra were averaged for least 15 scans and processed after subtraction of the baseline scan (buffer in which protein was excluded). A control consisting of a buffer containing EGCG, but lacking protein was used to account for baseline fluorescence.

PfHsp70-z [8] = target: T2, PfHsp70-z; assay: as above; details: EGCG 0–5 μM
Experimental: as §4

P. falciparum 3D7 = assay: Antiplasmodial pLDH growth inhibition assay; type: cell-based; details: Plasmodium falciparum
Experimental: P. falciparum 3D7 parasites were grown and maintained in continuous culture, as previously described, with minor modifications. The growth of P. falciparum 3D7-infected erythrocytes subjected to treatment with varying amounts (0, 0.156, 0.3125, 0.625, 1.25, 2.5, and 5 μM) of EGCG was monitored using the P. falciparum lactate dehydrogenase (pLDH) method, as previously described. As a control, Chloroquine, a known antimalarial drug, was used as a positive control in the assay. Serially-diluted EGCG was added to each culture batch. Uninfected erythrocytes that were similarly treated with EGCG were included to cater for possible lysis of erythrocytes exposed to EGCG. A blank consisting of media and EGCG was also set up. P. falciparum 3D7-infected erythrocytes that were not exposed to EGCG treatment were used as the viability control, representing ‘100% growth’. Analysis of the growth inhibition assay data was carried out using GraphPad Prism 6 (San Diego, CA, USA). The assay was repeated three times.

T1 sequence (Q8IB24 entry or part of it): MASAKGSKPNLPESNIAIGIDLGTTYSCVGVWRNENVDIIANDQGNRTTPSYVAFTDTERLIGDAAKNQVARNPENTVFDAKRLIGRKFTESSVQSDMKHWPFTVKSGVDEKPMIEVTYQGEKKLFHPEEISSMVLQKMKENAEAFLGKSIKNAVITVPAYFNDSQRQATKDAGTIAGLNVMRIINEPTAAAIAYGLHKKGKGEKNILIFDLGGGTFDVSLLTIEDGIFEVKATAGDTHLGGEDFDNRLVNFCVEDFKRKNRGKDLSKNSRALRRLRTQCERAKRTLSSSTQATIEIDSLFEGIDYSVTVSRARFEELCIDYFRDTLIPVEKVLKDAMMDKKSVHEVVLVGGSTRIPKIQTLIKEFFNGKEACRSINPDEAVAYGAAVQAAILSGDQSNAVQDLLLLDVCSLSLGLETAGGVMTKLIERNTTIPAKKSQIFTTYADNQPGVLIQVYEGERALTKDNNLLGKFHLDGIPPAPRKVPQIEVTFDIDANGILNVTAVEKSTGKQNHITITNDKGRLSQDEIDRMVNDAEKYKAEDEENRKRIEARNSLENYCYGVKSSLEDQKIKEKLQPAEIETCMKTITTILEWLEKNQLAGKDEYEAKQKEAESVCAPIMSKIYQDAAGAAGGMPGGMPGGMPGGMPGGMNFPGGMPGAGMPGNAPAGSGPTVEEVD
T2 sequence (Q8IC01 entry or part of it): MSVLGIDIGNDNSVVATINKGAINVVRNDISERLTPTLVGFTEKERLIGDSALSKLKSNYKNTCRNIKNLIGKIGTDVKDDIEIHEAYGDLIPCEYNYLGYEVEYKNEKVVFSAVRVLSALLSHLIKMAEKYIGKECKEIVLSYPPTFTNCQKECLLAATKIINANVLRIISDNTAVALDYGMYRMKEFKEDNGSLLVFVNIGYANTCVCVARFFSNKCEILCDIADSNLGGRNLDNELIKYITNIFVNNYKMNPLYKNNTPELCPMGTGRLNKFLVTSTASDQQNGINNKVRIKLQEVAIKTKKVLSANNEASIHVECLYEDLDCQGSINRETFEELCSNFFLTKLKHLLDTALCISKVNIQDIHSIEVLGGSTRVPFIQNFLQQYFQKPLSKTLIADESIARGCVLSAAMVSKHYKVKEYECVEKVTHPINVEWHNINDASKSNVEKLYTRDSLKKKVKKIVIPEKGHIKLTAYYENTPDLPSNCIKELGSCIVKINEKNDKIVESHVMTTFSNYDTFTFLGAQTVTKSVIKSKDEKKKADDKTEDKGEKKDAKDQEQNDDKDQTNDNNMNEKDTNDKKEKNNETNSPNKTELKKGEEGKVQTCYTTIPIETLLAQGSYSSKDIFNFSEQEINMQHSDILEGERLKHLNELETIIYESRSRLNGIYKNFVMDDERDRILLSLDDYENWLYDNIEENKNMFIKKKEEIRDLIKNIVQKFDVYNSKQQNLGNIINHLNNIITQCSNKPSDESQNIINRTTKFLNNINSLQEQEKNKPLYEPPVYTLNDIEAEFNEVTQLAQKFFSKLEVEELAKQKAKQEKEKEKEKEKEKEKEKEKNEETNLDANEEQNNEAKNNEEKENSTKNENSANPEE

Nc1ncnc2c1ncn2[C@@H]1O[C@H](COP(=O)(O)OP(=O)(O)OP(=O)(O)O)[C@@H](O)[C@H]1O [ATP]
effect on chaperone activity (MDH aggregation) (PfHsp70-1 [1]): did inhibit the activity | effect on chaperone activity (MDH aggregation) (PfHsp70-z [2]): not affecting the activity

O=C(O[C@@H]1Cc2c(O)cc(O)cc2O[C@@H]1c1cc(O)c(O)c(O)c1)c1cc(O)c(O)c(O)c1 [EGCG, (−)-Epigallocatechin-3-gallate]
fold higher affinity than ATP (PfHsp70-1 [3]): approximately 10 fold | fold higher affinity than ATP (PfHsp70-z [4]): approximately 10 fold | Ki (PfHsp70-1 [5]): 1.72 µM | Vmax (PfHsp70-1 [5]; EGCG 0.156 μM): 28.22 (±1.5) nmol/min/mg | Vmax (PfHsp70-1 [5]; EGCG 0.3125 μM): 29.03 (±0.7) nmol/min/mg | Vmax (PfHsp70-1 [5]; EGCG 0.625 μM): 28.40 (±0.95) nmol/min/mg | Vmax (PfHsp70-1 [5]; EGCG 1.25 μM): 27.47 (±2.01) nmol/min/mg | Vmax (PfHsp70-1 [5]; EGCG 2.5 μM): 29.04 (±0.6) nmol/min/mg | Vmax (PfHsp70-1 [5]; EGCG 5.0 μM): 30.06 (±0.5) nmol/min/mg | Ki (PfHsp70-z [6]): 2.34 µM | Vmax (PfHsp70-z [6]; EGCG 0.156 μM): 20.58 (±0.5) nmol/min/mg | Vmax (PfHsp70-z [6]; EGCG 0.3125 μM): 18.46 (±0.3) nmol/min/mg | Vmax (PfHsp70-z [6]; EGCG 0.625 μM): 19.66 (±0.5) nmol/min/mg | Vmax (PfHsp70-z [6]; EGCG 1.25 μM): 21.26 (±0.9) nmol/min/mg | Vmax (PfHsp70-z [6]; EGCG 2.5 μM): 18.88 (±0.6) nmol/min/mg | Vmax (PfHsp70-z [6]; EGCG 5.0 μM): 17.57 (±0.3) nmol/min/mg | shift of peak wavelength, tryptophan and tyrosine fluorescence (PfHsp70-1 [7]): red shift | shift of peak wavelength, tryptophan and tyrosine fluorescence (PfHsp70-z [8]): red shift | effect on capability to suppress heat-induced aggregation of MDH (PfHsp70-1 [1]; 2.5 µM EGCG): abrogated | lowest concentration at which it inhibited the function of the chaperones (PfHsp70-1 [1]; MDH aggregation): 2.5 µM | effect on capability to suppress heat-induced aggregation of MDH (PfHsp70-z [2]; 2.5 µM EGCG): abrogated | lowest concentration at which it inhibited the function of the chaperones (PfHsp70-z [2]; MDH aggregation): 2.5 µM | IC50 (P. falciparum 3D7; 3D7, blood stages, pLDH, read-out: IC50 parasite growth): 2.9 µM

Nc1ncnc2c1ncn2[C@@H]1O[C@H](COP(=O)(O)OP(=O)(O)O)[C@@H](O)[C@H]1O [ADP]
effect on chaperone activity (MDH aggregation) (PfHsp70-1 [1]): did not alter the chaperone activity | effect on chaperone activity (MDH aggregation) (PfHsp70-z [2]): did not alter the chaperone activity

CCN(CC)CCCC(C)Nc1ccnc2cc(Cl)ccc12 (stereo not shown) [chloroquine]
IC50 (P. falciparum 3D7; 3D7, read-out: IC50 parasite growth): 0.0085 µM
